Measured values from US7521459B2, “Method for treating damaged skin” (Metabeauty Inc., priority 2003, dated 2009).

Experiments:
[1] = tested on: Patient A skin; experiment: Daily topical application of a 5% imiquimod composition to Patient A skin, visual inspection; format: in vivo, human; details: after 8 weeks of daily application
Text: In a first example of a method of the invention, a 5% imiquimod composition is applied to Patient A skin.
(§1) One skilled in the art is familiar with many methods and techniques for evaluating or monitoring changes in the skin. […] For example, changes in pigmentation, texture, and the presence of wrinkles or fine lines can all be monitored through visual assessment. In addition, a mexameter can be used to measure skin pigment, a tewameter and/or evaporometer can be used to measure water content, a laser doppler device can measure blood flow, and a visioscan or optical profilometer can measure surface texture, wrinkles, and/or roughness. Any one or any combination of these methods can be used, in particular, to measure, monitor, or detect changes in fine wrinkles, mottled hyperpigmentation, tactile roughness, lentigines, course or deep wrinkles, telangiectasia, skin laxity, keratinocytic atypia, melanocytic atypia, and/or dermal elastosis. Thus, the methods and composition of the invention can be used to treat and/or to evaluate possible treatment compositions where any one of these diseases or conditions are present or may be present.

[2] = tested on: entire face (precancerous lesions and normal, photodamaged skin); experiment: Daily application of a pea size aliquot of 5% imiquimod to the entire face of Patient B; format: in vivo, human; details: pea size aliquot of 5% imiquimod every day to the entire face
Protocol: as §1, with “In a further example of a method of the invention, Patient B is treated with a pea size aliquot of 5% imiquimod every day to the entire face. […] One” for “One”, “elastosis.” for “elastosis. Thus, the methods and composition of the invention can be used to treat and/or to evaluate possible treatment compositions where any one of these diseases or conditions are present or may be present.”

CC(C)Cn1cnc2c(N)nc3ccccc3c21 [imiquimod, 1-isobutyl-1H-imidazo [4,5,-C] quinolin-4-amine]
appearance of clinical wrinkles by visual inspection [1]: decreases
general skin appearance [1]: generally improved and healthier appearance
most noticeable improvement [1]: pigmentation and texture
appearance of non-precancerous skin (normal, photodamaged skin) [2]: looks smoother, with more regular pigmentation, and improvement of the fine wrinkles
irritation of non-precancerous skin (normal, photodamaged skin) [2]: does not become irritated
reaction of areas of the skin with precancerous lesions on the nose ([2]; biopsy shows BCC in precancerous regions): became very red, eroded and irritated
